Experimental data published in patent US20230364079A1, “COMPOUND AS BRAIN-PERMEABLE BTK OR HER2 INHIBITOR, PREPARATION METHOD THEREFOR, AND USE THEREOF” (CHENGDU HYPERWAY PHARMACEUTICALS CO., LTD., priority 2020, published 2023).

Experiments:
BTK wild-type kinase = BTK wild-type kinase (Homo sapiens (Human), UniProt Q06187); assay: BTK kinase activity inhibition test in vitro (Caliper EZ Reader); assay type: biochemical
Procedure: (§1) In the tests on the activity of inhibiting BTK and HER2 kinase in vitro in the examples of the present disclosure, powder of the compound was dissolved in 100% DMSO to prepare a 10 mM stock solution and stored at-20° C. in the dark. […] In addition, the compounds were subjected to experiments such as liver microsome metabolic stability, rat PK, rat brain penetration rate, and drug efficacy model in the examples of the present disclosure.
(§2) Compound powders were dissolved in 100% DMSO to make 10 mM stock solutions, which were stored at -20° C. in the dark.
(§3) 2: Kinase Reaction Process
(§4) (1) Preparation of 1 × Kinase buffer.
(§5) (5) After centrifugation at 1000 rpm for 30 seconds, the reaction plate was shaken to mix well and incubated at room temperature for 10 min.
(§6) (6) A 5/3-fold final concentration of a mixed solution of ATP and Kinase substrate 2 was prepared with 1 × Kinase buffer.
(§7) (7) 15 µL of the mixed solution of ATP and substrate with 5/3-fold final concentration was added to start the reaction.
(§8) (8) The 384-well plate was centrifuged at 1000 rpm for 30 seconds, shaken to mix well, and incubated at room temperature for 10 min.
(§9) (9) 30 µL of a stop solution was added to stop the kinase reaction, and after centrifugation at 1000 rpm for 30 seconds, the plate was shaken to mix well;
(§10) (10) The conversion rate was read with Caliper EZ Reader.
(§11) where Conversion%_sample indicates the conversion rate reading of the sample; Conversion%_min is the average reading of the negative control wells, representing the conversion rate reading of the wells without enzyme activity; Conversion%_max is the average reading of the ratio of the positive control wells, representing the conversion rate reading of the wells without compound inhibition.
(§12) Dose-Response Curve Fitting
(§13) With the log value of the concentration as the X-axis, and the percentage inhibition rate as the Y-axis, the dose-effect curve was fitted using the log(inhibitor) vs. response-Variable slope of the analysis software GraphPad Prism 5, so as to determine the IC50 value of each compound on the enzyme activity.
(§14) The calculation formula was: […]

[1] = Liver microsome metabolic stability test, human; assay type: in vitro ADME; conditions: for half-life: read-out: T½
Procedure: (§15) 1: To the sample wells of T0, T5, T10, T20, T30, T60 and NCF60, 10 µL of the test or reference working solution and 80 µL of microsome working solution (hepatic microsome with a protein concentration of 0.5 mg/mL) were added, and to Blank60 well, only the microsome working solution was added. Then samples of the Blank60, T5, T10, T20, T30 and T60 other than T0 and NCF60 were placed in a 37° C. water bath and pre-incubated for about 10 min.
(§16) 2: To the T0 sample well, 300 µL of stop solution (containing 200 ng/mL tolbutamide and 200 ng/mL labetalol in acetonitrile solution) was added first, followed by 10 µL of NADPH regeneration system working solution.
(§17) 3: After the pre-incubation of Blank60, T5, T10, T20, T30 and T60 incubation plates, 10 µL of NADPH regeneration system working solution was added to each sample well to start the reaction, and 10 µL of 100 mM potassium phosphate buffer was added to the NCF60 sample well.
(§18) 4: After incubation for an appropriate time (such as 5, 10, 20, 30 and 60 min), to each test sample well and control well of the Blank60, T5, T10, T20, T30, T60 and NCF60 plates, 300 µL of stop solution was added to terminate the reaction.
(§19) 5: All sample plates were shaken to mix well and centrifuged at 4000 rpm for 20 min, and 100 µL of the supernatant of the test sample or control sample was taken and diluted with 300 µL of pure water for LC-MS/MS analysis.
(§20) 6: Data analysis: T½ and CLint(mic) (µL/min/mg) values were calculated according to the first-order elimination kinetics. The first-order elimination kinetics equation was: […]

[2] = Liver microsome metabolic stability test, rat; assay type: in vitro ADME; conditions: for half-life: read-out: T½
Procedure: as §15, §16, §17, §18, §19, §20

[3] = molecular target: BTK mutation-type C481S kinase (Homo sapiens (Human), UniProt Q06187, C481S); assay: BTK-C481S kinase activity inhibition test in vitro (Caliper EZ Reader); assay type: biochemical
Sequence of BTK mutation-type C481S kinase (Q06187 whole entry C481S): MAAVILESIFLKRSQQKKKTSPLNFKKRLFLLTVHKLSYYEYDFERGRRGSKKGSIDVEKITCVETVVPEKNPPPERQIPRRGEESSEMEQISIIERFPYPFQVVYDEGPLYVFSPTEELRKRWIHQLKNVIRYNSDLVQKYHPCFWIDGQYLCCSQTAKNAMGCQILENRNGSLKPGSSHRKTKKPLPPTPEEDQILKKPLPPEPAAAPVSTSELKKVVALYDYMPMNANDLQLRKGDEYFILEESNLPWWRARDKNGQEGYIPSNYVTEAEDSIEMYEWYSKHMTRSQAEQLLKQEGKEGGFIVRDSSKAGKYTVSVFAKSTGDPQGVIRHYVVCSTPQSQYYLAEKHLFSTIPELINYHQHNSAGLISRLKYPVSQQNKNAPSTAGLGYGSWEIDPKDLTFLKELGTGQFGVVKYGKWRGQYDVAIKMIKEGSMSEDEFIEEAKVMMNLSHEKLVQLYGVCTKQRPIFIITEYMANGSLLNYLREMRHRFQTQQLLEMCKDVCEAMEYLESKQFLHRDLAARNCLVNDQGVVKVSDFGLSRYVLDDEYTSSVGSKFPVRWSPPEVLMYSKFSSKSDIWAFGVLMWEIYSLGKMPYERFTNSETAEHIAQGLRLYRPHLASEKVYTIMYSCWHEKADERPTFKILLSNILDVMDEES
Procedure: as §1, §2, §3, §4, §5, §6, §7, §8, §9, §10, §11, §12, §13, §14

[4] = Pharmacokinetic test, oral, SD rats; assay type: in vivo; conditions: oral 10 mg/kg, plasma; for AUC(0-inf) / Cmax / half-life: rat; for Cmax: read-out: Cmax; for half-life: read-out: T½ (converted)
Procedure: Each test compound was administered orally (10 mg/kg, 3 rats in each group) to SD rats for pharmacokinetic study. […] Animals were fasted overnight before oral administration, and fed again after 4 h of administration. […] At each collection time point, 3 whole blood samples were collected at a the collection volume of about 0.2-0.3 mL. […] The collected plasma was stored at -20° C. before analysis. 20 µL of plasma sample was added into a 1.6 mL 96-well deep-well plate, added with 200 µL of working internal standard solution (the same volume of vehicle was added to the blank instead of internal standard), vortexed for 1 min, and centrifuged at 5800 rpm for 10 min. 100 µL of the supernatant was added to a 96-well injection plate for LC-MS/MS analysis.

[5] = liver microsomes, 0.5 mg/mL protein

Sequence of BTK wild-type kinase (Q06187 whole entry): as the sequence (Q06187 whole entry C481S) above, with S481C counted along it

Row | SMILES | IC50 (BTK wild-type kinase) [nM] | %Remaining (60 min) [1] [%] | half-life [1, 5] [min] | %Remaining (60 min) [2] [%] | half-life [2, 5] [min] | IC50 [3] [nM] | also measured
1 | Nc1nccn2c(C34CCC(CO)(CC3)OC4)nc(-c3ccc(C(F)(F)c4ccccc4Cl)cc3)c12 [Compound 155] | 100 to 1000 | 25.8 | 33.3 | 14.2 | 22.3 |  | 
2 | COc1cccc(Oc2ccc(-c3nc(C4CCC(CO)OC4)n4c(Cl)cnc(N)c34)cc2)c1F (stereo not drawn) [Compound 12] |  | 2.6 | 11.1 | 3.0 | 11.8 |  | 
3 | COc1cccc(C(F)(F)c2ccc(-c3nc(C4CCC(CO)OC4)n4ccnc(N)c34)cc2)c1 (stereo not drawn) [Compound 121] | 5 to 20 |  |  |  |  | 5 to 20 | 
4 | Nc1nccn2c(C3CCC(CO)OC3)nc(-c3ccc(Oc4cccc(C(F)(F)F)c4F)cc3)c12 (stereo not drawn) [Compound 19] | 5 to 20 | 23.5 | 29.4 | 7.9 | 16.7 |  | 
5 | Cc1ccnc(NC(=O)c2ccc(-c3nc(C4CCC(CO)OC4)n4ccnc(N)c34)cc2)c1 (stereo not drawn) [Compound 70] | 5 to 20 | 77.7 | 105 | 37.3 | 45.7 |  | 
6 | Nc1nccn2c(C3CCC(CO)OC3)nc(-c3ccc(C(F)(F)c4cc(C(F)(F)F)ccn4)cc3)c12 (stereo not drawn) [Compound 124] | 100 to 1000 |  |  |  |  | 100 to 1000 | 
7 | Nc1nccc2c1n(-c1ccc(Oc3ccccc3)cc1)c(=O)n2C1CCC(CO)OC1 (stereo not drawn) [Compound 120] | 20 to 100 |  |  |  |  | 5 to 20 | 
8 | Nc1nccn2c(C34CCC(CO)(CC3)OC4)nc(-c3ccc(C(F)(F)c4cccc(Cl)c4F)cc3)c12 [Compound 152] | 100 to 1000 | 25.4 | 30.2 | 25.8 | 13.5 |  | Cl [4]: 272.78 mL/min/kg; AUC(0-inf) [4]: 1330 ng·h/mL; Cmax [4]: 200 ng/mL; half-life [4]: 169 min
9 | Nc1cccc(NC(=O)c2ccc(-c3nc([C@@H]4CC[C@@H](CO)OC4)n4ccnc(N)c34)cc2)n1 (single isomer, unassigned) [Compound 2-A-P2] | 20 to 100 |  |  |  |  | 20 to 100 | 
10 | Nc1nccn2c(C3CCC(CO)OC3)nc(-c3ccc(Oc4cccc(Cl)c4F)cc3)c12 (stereo not drawn) [Compound 9] |  | 24.5 | 28.6 | 3.2 | 12.2 |  | 
11 | Nc1nccn2c(C3CCC(CO)OC3)nc(-c3ccc(Oc4ccccc4)cc3F)c12 (stereo not drawn) [Compound 17] | 5 to 20 |  |  |  |  | 5 to 20 | 
12 | Nc1nccn2c(C3CC[C@@H](CO)OC3)nc(-c3ccc(C(=O)Nc4ccccn4)cc3F)c12 (stereo partly drawn) [Compound 1-B] | 20 to 100 | 99.9 |  | 63.7 |  | 5 to 20 | CLint [1]: <9.6 µL/min/mg; T½ ([1]; 0.5 mg/mL protein): >145 min; CLint [2]: 18.2 µL/min/mg; T½ ([2]; 0.5 mg/mL protein): 76.1 min
13 | Nc1nccn2c(C3CCC(CO)OC3)nc(-c3ccc(Oc4ccccc4)cc3)c12 (stereo not drawn) [Compound 16] | 5 to 20 | 31.8 | 37.5 | 14.6 | 21.7 |  | 
14 | COc1ccccc1C(=O)NCc1ccc(-c2nn(C3CCC(CO)OC3)c3ncnc(N)c23)cc1 (stereo not drawn) [Compound 60-A] |  | 109.9 |  | 69 |  |  | 

More lines, main results first:

Row | IC50 (BTK wild-type kinase) [nM] | %Remaining (60 min) [1] [%] | half-life [1, 5] [min] | %Remaining (60 min) [2] [%] | half-life [2, 5] [min] | IC50 [3] [nM] | SMILES | also measured
15 | 5 to 20 | 31.7 | 37.7 | 8.5 | 17 |  | Nc1nccn2c(C3CCC(CO)OC3)nc(-c3ccc(Oc4c(F)cccc4F)cc3)c12 (stereo not drawn) [Compound 64] | 
16 | 5 to 20 |  | > 145 |  | 143 |  | COc1ccccc1C(=O)NCc1ccc(-c2nn(C3CCC(CO)OC3)c3ncnc(N)c23)cc1 (single isomer, unassigned) [Compound 60-A] | microsomal CLint ([1]; liver microsomes): < 9.6 µL/min/mg; microsomal CLint ([2]; liver microsomes): 9.7 µL/min/mg
17 | 5 to 20 | 39.1 | 44.5 | 24.5 | 30.1 | 5 to 20 | Nc1nccn2c(C3CCC(CO)OC3)nc(-c3ccc(C(=O)c4ccccc4)cc3)c12 (stereo not drawn) [Compound 26] | 
18 | < 5 | 81.1 | > 145 | 39.5 | 46.5 |  | COc1cccc(Oc2ccc(-c3nc(C4CCC(CO)OC4)n4ccnc(N)c34)cc2)c1 (stereo not drawn) [Compound 101] | Cl [4]: 48.75 mL/min/kg; AUC(0-inf) [4]: 3670 ng·h/mL; Cmax [4]: 1770 ng/mL; half-life [4]: 75 min
19 | < 5 |  |  |  |  | < 5 | [2H]C([2H])([2H])Oc1cccc(Oc2ccc(-c3nc(C4CCC(CO)OC4)n4ccnc(N)c34)cc2)c1F (stereo not drawn) [Compound 7] | 
20 | < 5 |  |  |  |  |  | COc1cccc(Oc2ccc(-c3nc(C45CCC(CO)(CC4)OC5)n4ccnc(N)c34)cc2)c1C#N [Compound 116] | Cl [4]: 84.73 mL/min/kg; AUC(0-inf) [4]: 2010 ng·h/mL; Cmax [4]: 858 ng/mL; half-life [4]: 81 min
21 | < 5 | 9.7 | 18.5 | 0.1 | 5.4 |  | Cc1cccc(Oc2ccc(-c3nc(C4CCC(CO)OC4)n4ccnc(N)c34)cc2)c1F (stereo not drawn) [Compound 24] | 
22 | < 5 |  |  |  |  |  | COc1cccc(Oc2ccc(-c3nc(C4CCC(CO)OC4)n4ccnc(N)c34)cc2)c1C(F)(F)F (stereo not drawn) [Compound 119] | Cl [4]: 75.92 mL/min/kg; AUC(0-inf) [4]: 2250 ng·h/mL; Cmax [4]: 663 ng/mL; half-life [4]: 38.4 min
